Tests used:
rat CB2 [1] = target: T1, rat CB2 (Rattus norvegicus, UniProt Q9QZN9); assay: rat CB2 cyclase functional assay (HitHunter cAMP, HEK cells); format: cell-based; set-up: expressed in transfected cells; host or cells: HEK; conditions: forskolin 18 μM
T1 sequence (Q9QZN9 1-360): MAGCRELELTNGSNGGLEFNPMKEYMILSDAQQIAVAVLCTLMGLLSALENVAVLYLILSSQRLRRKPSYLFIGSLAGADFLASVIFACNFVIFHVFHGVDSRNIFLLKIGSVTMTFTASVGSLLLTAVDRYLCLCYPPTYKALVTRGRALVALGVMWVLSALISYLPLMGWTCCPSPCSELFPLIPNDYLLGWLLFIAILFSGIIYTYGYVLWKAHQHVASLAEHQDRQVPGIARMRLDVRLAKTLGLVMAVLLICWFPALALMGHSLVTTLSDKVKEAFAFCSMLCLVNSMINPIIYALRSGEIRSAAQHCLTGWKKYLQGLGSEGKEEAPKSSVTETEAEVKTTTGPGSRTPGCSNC

human CB2 receptors = target: T2, human CB2 receptors (Homo sapiens, UniProt P34972); assay: human CB2 radioligand binding assay ([3H]CP-55,940 competition)
T2 construct: expressed in transfected cells; host or cells: HEK293
T2 sequence (P34972 whole entry): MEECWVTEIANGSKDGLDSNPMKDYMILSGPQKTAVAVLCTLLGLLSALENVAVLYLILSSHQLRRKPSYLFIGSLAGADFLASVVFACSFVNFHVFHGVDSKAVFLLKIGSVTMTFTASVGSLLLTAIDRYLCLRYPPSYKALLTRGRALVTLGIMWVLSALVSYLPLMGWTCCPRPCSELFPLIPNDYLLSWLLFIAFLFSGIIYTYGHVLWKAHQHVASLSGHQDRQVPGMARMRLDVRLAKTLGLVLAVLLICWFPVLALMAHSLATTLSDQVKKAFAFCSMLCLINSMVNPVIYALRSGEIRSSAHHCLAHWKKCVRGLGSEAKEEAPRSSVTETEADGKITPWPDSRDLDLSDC

rat CB2 [2] = target: T1, rat CB2; assay: rat CB2 radioligand binding assay ([3H]CP-55,940 competition); set-up: expressed in transfected cells; host or cells: HEK293

SMILES | EC50 (rat CB2 [1]) [nM] | Ki (human CB2 receptors) [nM] | Ki (rat CB2 [2]) [nM]
CCCCc1cn(C(C)(C)C)s/c1=N\C(=O)[C@@]1(C)CC[C@@H](C(=O)OCC)C1(C)C [Example 176, Ethyl (1R,3S)-3-({[(5Z)-4-butyl-2-tert-butylisothiazol-5(2H)-ylidene]amino}carbonyl)-2,2,3-trimethylcyclopentanecarboxylate] | 1.1 | 16 | 7
CCCCc1cn(C(C)(C)C)s/c1=N\C(=O)[C@]1(C)CC[C@H](C(=O)NC)C1(C)C [Example 184, (1R,3S)—N^1-[(5Z)-4-butyl-2-tert-butylisothiazol-5(2H)-ylidene]-N^3,1,2,2-tetramethylcyclopentane-1,3-dicarboxamide] | 0.41 | 6.5 | 3.2
COc1ccc(Cl)cc1C(=O)/N=c1\sn(C(C)(C)C)cc1CC1CCCC1 [Example 136, N-[(5Z)-2-tert-butyl-4-(cyclopentylmethyl)isothiazol-5(2H)-ylidene]-5-chloro-2-methoxybenzamide] | 0.051 | 1.9 | 0.51
CCCCc1cn(C(C)(C)C)s/c1=N\C(=O)[C@@]1(C)CC[C@@H](C(=O)OC)C1(C)C [Example 186, Methyl (1R,3S)-3-({[(5Z)-4-butyl-2-tert-butylisothiazol-5(2H)-ylidene]amino}carbonyl)-2,2,3-trimethylcyclopentanecarboxylate] | 0.38 | 1.7 | 1.4
CCCCc1cn(C(C)(C)C)s/c1=N\C(=O)c1cc(C(F)(F)F)ccc1OC [Example 127, N-[(5Z)-4-butyl-2-tert-butylisothiazol-5(2H)-ylidene]-2-methoxy-5-(trifluoromethyl)benzamide] | 0.16 | 3.7 | 0.43
COc1ccc(Cl)cc1C(=O)/N=c1\sn(C(C)(C)C)cc1CC1CCCO1 (stereo not drawn) [Example 67, N-[(5Z)-2-tert-butyl-4-(tetrahydrofuran-2-ylmethyl)isothiazol-5(2H)-ylidene]-5-chloro-2-methoxybenzamide] | 3.7 | 32 | 3
CCCCc1cn(C(C)(C)C)s/c1=N\C(=O)c1cc(C(=O)OC)ccc1OC [Example 74, Methyl 3-({[(5Z)-4-butyl-2-tert-butylisothiazol-5(2H)-ylidene]amino}carbonyl)-4-methoxybenzoate] | 0.095 | 27 | 2.5
CCCCc1cn(C(C)(C)C)s/c1=N\C(=O)c1cc(C(F)(F)F)ccc1OC[C@@H]1CCCN1C [Example 192, N-[(5Z)-4-butyl-2-tert-butylisothiazol-5(2H)-ylidene]-2-{[(2S)-1-methylpyrrolidin-2-yl]methoxy}-5-(trifluoromethyl)benzamide] | 3.4 | 46 | 18
CCCCc1cn(C(C)(C)C)s/c1=N\C(=O)c1cc(Cl)ccc1OCC#N [Example 153, N-[(5Z)-4-butyl-2-tert-butylisothiazol-5(2H)-ylidene]-5-chloro-2-(cyanomethoxy)benzamide] | 0.061 | 13 | 2.1

From patent US8501794B2, “Compounds as cannabinoid receptor ligands” (priority 2007, dated 2013)
